From PMC11931445, “A Novel Compound QO‐83 Alleviates Acute and Chronic Epileptic Seizures in Rodents by Modulating KV7 Channel Activity” (CNS Neuroscience & Therapeutics, 2025)

Key:
KV7.2 = biological target: T1, KV7.2 (Homo sapiens, UniProt O43526); assay: Manual patch clamp, KV7 currents; format: cell-based; conditions: KV7.2
T1 construct: expressed in transfected cells
Description: (§1) Pipettes (1–6 MΩ) were filled with a solution of KCl (145 mM), MgCl2 (1 mM), HEPES (10 mM), and EDTA (5 mM). The pH was adjusted to 7.2 with NaOH. Electrophysiological measurements were obtained using an AXON Multiclamp 700 B patch‐clamp amplifier. The bath solution contained NaCl (144 mM), KCl (5 mM), MgCl2 (1 mM), CaCl2 (2 mM), and D‐glucose (10 mM), with the pH adjusted to 7.4 using NaOH. The protocol involved an increase in voltage from −120 mV to 40 mV in increments of 10 mV to evoke a series of KV7 currents (1000 ms per pulse) in the bath solution. For details on cell culture, please see Appendix S1 2.2.1.
(§2) Statistical differences between multiple groups (mean ± SEM) were compared using one‐ or two‐way ANOVA. Electrophysiological data were analyzed using SPSS version 21 and OriginPro (version 9.1.0). P Peak inward currents obtained from activation protocols were calculated using the following equation: G = I/(Vm‐EK), where G is conductance, I is peak inward current, Vm is instantaneous membrane potential, and EK is equilibrium potential for the […] channel. Conductance data were normalized using maximum conductance and further fitted to the Boltzmann equation: G=Gmax+Gmin−Gmax/1+expVm−V1/2/k , where G is conductance, V1/2 is midpoint of activation, and k is slope factor. The “Spectrum” module of LabChart was used for data analysis of EEG signals, including the calculation of power density and averaging power spectral density (PSD).
(§3) Stable Chinese Hamster Ovary (CHO) cell lines expressing specific Kv7 channel subtypes, including KV7.2 and KV7.2/7.3, were cultured in Minimum Essential Medium (MEM) supplemented with 10% fetal calf serum, 1× nonessential amino acids, […], and […] hygromycin B. Concurrently, KV7.4 and KV7.5 channels were stably expressed in Human Embryonic Kidney 293A (HEK293A) cell lines and nurtured in Dulbecco's Modified Eagle Medium (DMEM) high glucose medium supplemented with 10% fetal bovine serum (FBS), […], and […] hygromycin B.

KV7.2/7.3 = biological target: T2, KV7.2/7.3 (Homo sapiens, UniProt O43525+O43526); assay: Manual patch clamp, KV7 currents; format: cell-based
T2 construct: expressed in transfected cells
Description: as §1, §2, §3

KV7.4 = biological target: T3, KV7.4 (Homo sapiens, UniProt P56696); assay: Manual patch clamp, KV7 currents; format: cell-based
T3 construct: expressed in transfected cells
Description: as §1, §2, §3

KV7.5 = biological target: T4, KV7.5 (Homo sapiens, UniProt Q9NR82); assay: Manual patch clamp, KV7 currents; format: cell-based
T4 construct: expressed in transfected cells
Description: as §1, §2, §3

KV7.3 = KV7.3 (Homo sapiens, UniProt O43525); assay: Manual patch clamp, KV7 currents; format: cell-based
Description: as §1, §2

[1] = Colour stability of drug solutions; format: physicochemical; conditions: 10 μM in saline, 37°C, 30 days
Description: Both drugs were dissolved in saline at a concentration of 10 μM and maintained at a constant temperature of 37°C for 30 days.

In the case of `CCOC(=O)Nc1ccc(NCc2ccc(F)cc2)cc1N` [RTG, retigabine], the “activation curve V1/2” value (KV7.2; 10.00 μM) is reported as -32.23 ± 1.89 mV, the “Activation τ (10 mV)” value (KV7.2; 10 μM, Mean ± SE) is reported as 259.60 ± 69.06 ms and the “Deactivation τ (-120 mV)” value (KV7.2; 10 μM, Mean ± SE) is reported as 102.04 ± 18.32 ms. For the same molecule, the “activation curve V1/2” value (KV7.2/7.3; 10.00 μM) was -37.76 ± 2.34 mV, the “Activation τ (10 mV)” value (KV7.2/7.3; 10 μM, Mean ± SE) was 205.66 ± 37.03 ms and the “Deactivation τ (-120 mV)” value (KV7.2/7.3; 10 μM, Mean ± SE) was 154.46 ± 45.81 ms. For the same molecule, the “activation curve V1/2” value (KV7.4; 10.00 μM) was -40.62 ± 2.00 mV, the “Activation τ (10 mV)” value (KV7.4; 10 μM, Mean ± SE) was 242.74 ± 34.66 ms and the “Deactivation τ (-120 mV)” value (KV7.4; 10 μM, Mean ± SE) was 99.62 ± 18.87 ms. For the same molecule, the “activation curve V1/2” value (KV7.5; 10.00 μM) was -56.77 ± 1.07 mV, the “Activation τ (10 mV)” value (KV7.5; 10 μM, Mean ± SE) was 170.33 ± 16.42 ms and the “Deactivation τ (-120 mV)” value (KV7.5; 10 μM, Mean ± SE) was 96.4 ± 14.98 ms. For the same molecule, the “activation curve V1/2” value (KV7.3; 10.00 μM) was -55.64 ± 1.31 mV, the “Activation τ (10 mV)” value (KV7.3; 10 μM, Mean ± SE) was 246.33 ± 21.28 ms and the “Deactivation τ (-120 mV)” value (KV7.3; 10 μM, Mean ± SE) was 153.33 ± 48.97 ms. The “color change of drug solution” value [1] was “developed a distinct purple coloration”.
